Laboratory results taken from paper PMC11864979, “First-in-class ultralong-target-residence-time p38α inhibitors as a mitosis-targeted therapy for colorectal cancer” (Nature Cancer, 2025).
Where two headings read alike, the source gives them in different places.

Legend:
Test in all cases: selectivity profiling in a panel of 340 wild-type kinases (Reaction Biology Europe)
Type in all cases: binding
[1] = molecular target: T1, 340 wild-type kinases (Homo sapiens, UniProt P04626)
T1 construct: purchased Reaction Biology Europe
T1 sequence (P04626 23-1255): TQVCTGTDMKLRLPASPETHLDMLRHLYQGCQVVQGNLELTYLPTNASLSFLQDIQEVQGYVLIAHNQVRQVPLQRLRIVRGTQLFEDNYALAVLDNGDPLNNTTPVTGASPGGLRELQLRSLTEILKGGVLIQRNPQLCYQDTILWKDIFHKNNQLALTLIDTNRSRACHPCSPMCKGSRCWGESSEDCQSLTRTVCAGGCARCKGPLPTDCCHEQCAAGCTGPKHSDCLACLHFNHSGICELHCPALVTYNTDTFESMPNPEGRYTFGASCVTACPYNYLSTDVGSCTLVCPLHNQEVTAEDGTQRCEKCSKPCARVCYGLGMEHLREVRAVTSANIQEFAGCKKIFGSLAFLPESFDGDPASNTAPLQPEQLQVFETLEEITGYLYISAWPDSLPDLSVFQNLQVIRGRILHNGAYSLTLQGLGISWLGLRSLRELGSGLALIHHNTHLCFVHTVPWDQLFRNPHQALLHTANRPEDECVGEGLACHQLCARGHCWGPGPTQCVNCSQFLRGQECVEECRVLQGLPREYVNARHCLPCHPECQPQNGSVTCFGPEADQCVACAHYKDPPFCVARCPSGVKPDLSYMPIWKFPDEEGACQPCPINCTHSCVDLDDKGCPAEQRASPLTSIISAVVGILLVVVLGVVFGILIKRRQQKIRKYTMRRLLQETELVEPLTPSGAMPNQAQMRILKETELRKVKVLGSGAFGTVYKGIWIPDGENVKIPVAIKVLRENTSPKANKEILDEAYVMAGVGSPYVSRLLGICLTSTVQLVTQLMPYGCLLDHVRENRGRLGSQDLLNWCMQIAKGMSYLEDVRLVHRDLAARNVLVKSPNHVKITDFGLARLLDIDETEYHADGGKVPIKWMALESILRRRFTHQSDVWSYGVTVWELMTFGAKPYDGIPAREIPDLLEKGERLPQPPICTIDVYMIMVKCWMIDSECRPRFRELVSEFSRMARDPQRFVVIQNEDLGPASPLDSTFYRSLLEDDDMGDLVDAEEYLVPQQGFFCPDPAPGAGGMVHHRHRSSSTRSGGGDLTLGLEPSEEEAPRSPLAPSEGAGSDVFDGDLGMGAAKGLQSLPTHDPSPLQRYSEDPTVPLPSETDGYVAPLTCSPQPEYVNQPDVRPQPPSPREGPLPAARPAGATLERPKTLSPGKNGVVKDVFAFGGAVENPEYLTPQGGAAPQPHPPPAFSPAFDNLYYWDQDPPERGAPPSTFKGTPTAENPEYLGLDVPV

[2] = molecular target: T2, 340 wild-type kinases (Homo sapiens, UniProt P04629)
T2 construct: purchased Reaction Biology Europe
T2 sequence (P04629 33-796): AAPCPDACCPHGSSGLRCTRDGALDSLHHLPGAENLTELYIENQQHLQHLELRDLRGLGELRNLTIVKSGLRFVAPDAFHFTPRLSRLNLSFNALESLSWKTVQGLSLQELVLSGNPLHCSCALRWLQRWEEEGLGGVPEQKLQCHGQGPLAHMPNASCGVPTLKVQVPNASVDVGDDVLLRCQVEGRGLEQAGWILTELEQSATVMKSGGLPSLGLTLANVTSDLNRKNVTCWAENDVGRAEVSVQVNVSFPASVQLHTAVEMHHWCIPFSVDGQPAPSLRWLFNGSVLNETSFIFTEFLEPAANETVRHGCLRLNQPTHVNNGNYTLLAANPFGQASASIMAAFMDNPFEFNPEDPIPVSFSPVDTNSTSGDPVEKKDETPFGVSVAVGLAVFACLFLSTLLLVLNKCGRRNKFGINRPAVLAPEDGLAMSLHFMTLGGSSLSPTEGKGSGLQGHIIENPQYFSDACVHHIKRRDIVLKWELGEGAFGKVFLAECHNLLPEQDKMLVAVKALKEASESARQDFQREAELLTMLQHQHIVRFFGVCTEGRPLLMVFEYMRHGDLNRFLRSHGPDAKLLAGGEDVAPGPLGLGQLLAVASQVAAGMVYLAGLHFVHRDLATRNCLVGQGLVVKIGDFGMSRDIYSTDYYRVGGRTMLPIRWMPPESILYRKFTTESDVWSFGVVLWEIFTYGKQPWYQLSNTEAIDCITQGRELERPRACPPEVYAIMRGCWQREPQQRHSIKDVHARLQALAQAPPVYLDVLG

[3] = molecular target: T3, 340 wild-type kinases (Homo sapiens, UniProt P22607)
T3 construct: purchased Reaction Biology Europe
T3 sequence (P22607 23-806): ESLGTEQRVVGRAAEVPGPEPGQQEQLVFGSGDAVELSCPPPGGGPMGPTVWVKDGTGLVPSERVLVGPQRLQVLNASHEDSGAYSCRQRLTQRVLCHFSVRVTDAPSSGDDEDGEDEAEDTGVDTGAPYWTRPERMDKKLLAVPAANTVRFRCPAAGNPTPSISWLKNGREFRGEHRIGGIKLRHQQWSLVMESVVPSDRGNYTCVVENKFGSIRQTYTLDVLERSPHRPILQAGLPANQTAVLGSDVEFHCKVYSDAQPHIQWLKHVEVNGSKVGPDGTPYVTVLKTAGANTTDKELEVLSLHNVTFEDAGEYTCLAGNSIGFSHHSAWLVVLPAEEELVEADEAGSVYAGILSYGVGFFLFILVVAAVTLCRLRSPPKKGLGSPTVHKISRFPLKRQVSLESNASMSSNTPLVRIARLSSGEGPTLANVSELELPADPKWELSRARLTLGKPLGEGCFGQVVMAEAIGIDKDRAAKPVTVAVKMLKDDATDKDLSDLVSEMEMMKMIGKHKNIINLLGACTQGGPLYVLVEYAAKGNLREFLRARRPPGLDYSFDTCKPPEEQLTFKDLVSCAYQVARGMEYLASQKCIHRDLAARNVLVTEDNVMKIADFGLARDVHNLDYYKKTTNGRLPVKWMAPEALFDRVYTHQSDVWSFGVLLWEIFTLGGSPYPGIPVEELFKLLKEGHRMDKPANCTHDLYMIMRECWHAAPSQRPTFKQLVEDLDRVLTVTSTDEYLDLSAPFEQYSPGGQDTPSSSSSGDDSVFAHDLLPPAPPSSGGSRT

[4] = molecular target: T4, 340 wild-type kinases (Homo sapiens, UniProt P53779)
T4 construct: purchased Reaction Biology Europe
T4 sequence (P53779 whole entry): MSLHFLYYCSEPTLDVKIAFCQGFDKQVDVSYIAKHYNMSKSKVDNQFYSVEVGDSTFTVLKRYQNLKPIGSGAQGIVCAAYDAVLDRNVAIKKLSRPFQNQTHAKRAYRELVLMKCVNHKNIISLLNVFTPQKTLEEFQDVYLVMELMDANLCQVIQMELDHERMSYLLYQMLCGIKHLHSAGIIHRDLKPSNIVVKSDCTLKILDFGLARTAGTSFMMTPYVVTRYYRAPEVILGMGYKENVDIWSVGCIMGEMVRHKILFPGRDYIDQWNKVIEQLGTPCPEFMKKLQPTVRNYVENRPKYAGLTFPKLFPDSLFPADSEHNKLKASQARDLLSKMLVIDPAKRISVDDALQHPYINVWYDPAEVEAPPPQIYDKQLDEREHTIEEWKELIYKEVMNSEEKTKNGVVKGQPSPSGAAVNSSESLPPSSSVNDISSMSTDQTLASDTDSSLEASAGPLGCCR

[5] = molecular target: T5, 340 wild-type kinases (Homo sapiens, UniProt P78527)
T5 construct: purchased Reaction Biology Europe

[6] = molecular target: T6, 340 wild-type kinases (Homo sapiens, UniProt Q09013)
T6 construct: purchased Reaction Biology Europe
T6 sequence (Q09013 1-629): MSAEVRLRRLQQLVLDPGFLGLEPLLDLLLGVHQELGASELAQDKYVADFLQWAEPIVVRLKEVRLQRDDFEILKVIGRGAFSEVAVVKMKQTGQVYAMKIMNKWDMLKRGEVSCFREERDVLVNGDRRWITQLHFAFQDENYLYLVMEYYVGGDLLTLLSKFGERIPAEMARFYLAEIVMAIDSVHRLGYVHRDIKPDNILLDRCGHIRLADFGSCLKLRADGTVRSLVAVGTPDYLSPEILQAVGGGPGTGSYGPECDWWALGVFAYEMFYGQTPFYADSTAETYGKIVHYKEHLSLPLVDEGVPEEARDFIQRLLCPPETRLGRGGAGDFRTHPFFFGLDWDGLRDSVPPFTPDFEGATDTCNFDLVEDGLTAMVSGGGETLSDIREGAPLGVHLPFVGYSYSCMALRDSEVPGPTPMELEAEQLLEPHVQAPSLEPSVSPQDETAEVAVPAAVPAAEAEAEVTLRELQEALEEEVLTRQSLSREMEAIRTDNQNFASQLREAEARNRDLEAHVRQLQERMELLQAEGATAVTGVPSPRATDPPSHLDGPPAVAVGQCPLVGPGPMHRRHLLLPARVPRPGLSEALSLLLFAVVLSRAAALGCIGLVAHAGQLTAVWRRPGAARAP

[7] = molecular target: T7, 340 wild-type kinases (Homo sapiens, UniProt Q13163)
T7 construct: purchased Reaction Biology Europe
T7 sequence (Q13163 1-448): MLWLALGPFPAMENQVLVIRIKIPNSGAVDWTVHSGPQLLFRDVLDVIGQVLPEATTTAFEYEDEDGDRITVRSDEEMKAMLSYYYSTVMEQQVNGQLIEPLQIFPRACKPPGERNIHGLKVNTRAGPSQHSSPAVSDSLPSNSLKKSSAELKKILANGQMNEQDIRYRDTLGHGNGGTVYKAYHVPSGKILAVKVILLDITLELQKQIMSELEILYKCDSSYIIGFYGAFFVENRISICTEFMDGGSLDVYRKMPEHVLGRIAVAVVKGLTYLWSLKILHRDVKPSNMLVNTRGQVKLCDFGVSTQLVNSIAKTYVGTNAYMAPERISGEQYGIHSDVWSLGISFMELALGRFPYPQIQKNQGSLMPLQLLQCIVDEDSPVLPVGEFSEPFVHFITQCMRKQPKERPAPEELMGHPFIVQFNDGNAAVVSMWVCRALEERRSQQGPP

[8] = molecular target: T8, 340 wild-type kinases (Homo sapiens, UniProt Q14289)
T8 construct: purchased Reaction Biology Europe
T8 sequence (Q14289 whole entry): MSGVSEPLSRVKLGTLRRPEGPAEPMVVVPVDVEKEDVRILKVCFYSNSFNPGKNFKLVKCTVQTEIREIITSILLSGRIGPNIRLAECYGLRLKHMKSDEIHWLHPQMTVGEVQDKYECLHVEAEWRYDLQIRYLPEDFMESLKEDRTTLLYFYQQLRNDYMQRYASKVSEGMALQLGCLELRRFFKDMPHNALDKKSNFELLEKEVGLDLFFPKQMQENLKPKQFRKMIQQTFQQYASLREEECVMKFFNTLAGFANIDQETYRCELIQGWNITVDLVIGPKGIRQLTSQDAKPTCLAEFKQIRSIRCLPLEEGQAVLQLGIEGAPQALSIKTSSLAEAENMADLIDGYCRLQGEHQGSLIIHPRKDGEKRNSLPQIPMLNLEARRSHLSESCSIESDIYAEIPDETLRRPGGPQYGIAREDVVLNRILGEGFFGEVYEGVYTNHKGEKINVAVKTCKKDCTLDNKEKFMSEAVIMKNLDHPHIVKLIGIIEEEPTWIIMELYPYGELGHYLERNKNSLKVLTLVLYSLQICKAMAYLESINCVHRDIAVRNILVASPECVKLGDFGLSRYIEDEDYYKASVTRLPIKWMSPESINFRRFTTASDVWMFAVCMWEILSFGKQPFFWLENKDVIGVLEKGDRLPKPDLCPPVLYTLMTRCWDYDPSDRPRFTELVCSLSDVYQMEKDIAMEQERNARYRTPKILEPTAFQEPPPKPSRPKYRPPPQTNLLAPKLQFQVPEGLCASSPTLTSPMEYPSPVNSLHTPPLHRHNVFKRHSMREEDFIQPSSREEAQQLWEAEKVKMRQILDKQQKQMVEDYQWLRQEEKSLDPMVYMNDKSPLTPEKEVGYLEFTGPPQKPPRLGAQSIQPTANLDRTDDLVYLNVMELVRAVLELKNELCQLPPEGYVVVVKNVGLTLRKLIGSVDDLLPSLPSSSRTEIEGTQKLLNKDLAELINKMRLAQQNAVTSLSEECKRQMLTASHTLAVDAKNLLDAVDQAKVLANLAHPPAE

[9] = molecular target: T9, 340 wild-type kinases (Homo sapiens, UniProt Q16539)
T9 construct: purchased Reaction Biology Europe
T9 sequence (Q16539 whole entry): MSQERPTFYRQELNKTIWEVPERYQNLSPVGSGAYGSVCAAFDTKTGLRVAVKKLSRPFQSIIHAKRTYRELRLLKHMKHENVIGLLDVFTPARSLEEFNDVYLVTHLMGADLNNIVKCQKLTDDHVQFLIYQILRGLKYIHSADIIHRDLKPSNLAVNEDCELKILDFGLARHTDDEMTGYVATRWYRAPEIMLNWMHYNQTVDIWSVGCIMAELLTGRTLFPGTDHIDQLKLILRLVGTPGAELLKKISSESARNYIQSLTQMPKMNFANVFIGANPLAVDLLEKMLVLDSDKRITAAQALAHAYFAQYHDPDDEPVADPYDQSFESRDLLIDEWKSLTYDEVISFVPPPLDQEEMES

[10] = molecular target: T10, 340 wild-type kinases (Homo sapiens, UniProt Q8WTQ7)
T10 construct: purchased Reaction Biology Europe
T10 sequence (Q8WTQ7 1-553): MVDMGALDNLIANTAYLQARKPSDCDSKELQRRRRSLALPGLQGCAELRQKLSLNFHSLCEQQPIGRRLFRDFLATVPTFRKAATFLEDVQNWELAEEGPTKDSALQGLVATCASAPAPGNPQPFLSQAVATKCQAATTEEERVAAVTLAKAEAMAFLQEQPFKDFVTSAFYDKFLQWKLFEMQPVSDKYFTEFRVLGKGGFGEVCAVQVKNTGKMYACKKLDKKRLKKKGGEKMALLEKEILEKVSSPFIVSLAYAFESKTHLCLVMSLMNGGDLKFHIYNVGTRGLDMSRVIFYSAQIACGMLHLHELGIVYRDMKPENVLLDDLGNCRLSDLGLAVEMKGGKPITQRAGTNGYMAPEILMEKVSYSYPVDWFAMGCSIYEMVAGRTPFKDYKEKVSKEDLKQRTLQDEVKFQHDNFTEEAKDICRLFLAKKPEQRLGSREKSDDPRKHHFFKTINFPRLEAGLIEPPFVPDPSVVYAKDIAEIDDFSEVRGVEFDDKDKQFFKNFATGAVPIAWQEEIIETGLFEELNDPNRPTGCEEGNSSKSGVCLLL

CNC(=O)c1ccc2c(c1)C(=O)c1ccc(Nc3ccc(F)c(NC(=O)C4CC4)c3)cc1CC2 [Compound 2015]
remaining activity at 0.2 µM ([1]; 0.2 µM 2015, read-out: ERBB2 residual activity): 105%
remaining activity at 1 µM ([1]; 1 µM 2015, read-out: ERBB2 residual activity): 102%
remaining activity at 0.2 µM ([1]; ERBB2, 0.2 µM, read-out: residual activity): 105%
remaining activity at 1 µM ([1]; ERBB2, 1 µM, read-out: residual activity): 102%
remaining activity at 0.2 µM ([2]; 0.2 µM 2015, read-out: TRKA residual activity): 109%
remaining activity at 1 µM ([2]; 1 µM 2015, read-out: TRKA residual activity): 96.5%
remaining activity at 0.2 µM ([2]; TRKA, 0.2 µM, read-out: residual activity): 109%
remaining activity at 1 µM ([2]; TRKA, 1 µM, read-out: residual activity): 96.5%
remaining activity at 0.2 µM ([3]; 0.2 µM 2015, read-out: FGFR3 residual activity): 109%
remaining activity at 1 µM ([3]; 1 µM 2015, read-out: FGFR3 residual activity): 97.1%
remaining activity at 0.2 µM ([3]; FGFR3, 0.2 µM, read-out: residual activity): 109%
remaining activity at 1 µM ([3]; FGFR3, 1 µM, read-out: residual activity): 97.1%
remaining activity at 0.2 µM ([4]; 0.2 µM 2015, read-out: JNK3 residual activity): 90.9%
remaining activity at 1 µM ([4]; 1 µM 2015, read-out: JNK3 residual activity): 100%
remaining activity at 0.2 µM ([4]; JNK3, 0.2 µM, read-out: residual activity): 90.9%
remaining activity at 1 µM ([4]; JNK3, 1 µM, read-out: residual activity): 100%
remaining activity at 0.2 µM ([5]; 0.2 µM 2015, read-out: DNAPK residual activity): 111%
remaining activity at 1 µM ([5]; 1 µM 2015, read-out: DNAPK residual activity): 99.6%
remaining activity at 0.2 µM ([5]; DNAPK, 0.2 µM, read-out: residual activity): 111%
remaining activity at 1 µM ([5]; DNAPK, 1 µM, read-out: residual activity): 99.6%
remaining activity at 0.2 µM ([6]; 0.2 µM 2015, read-out: DMPK residual activity): 82.9%
remaining activity at 1 µM ([6]; 1 µM 2015, read-out: DMPK residual activity): 90.2%
remaining activity at 0.2 µM ([6]; DMPK, 0.2 µM, read-out: residual activity): 82.9%
remaining activity at 1 µM ([6]; DMPK, 1 µM, read-out: residual activity): 90.2%
remaining activity at 0.2 µM ([7]; 0.2 µM 2015, read-out: MEK5 residual activity): 102%
remaining activity at 1 µM ([7]; 1 µM 2015, read-out: MEK5 residual activity): 88.1%
remaining activity at 0.2 µM ([7]; MEK5, 0.2 µM, read-out: residual activity): 102%
remaining activity at 1 µM ([7]; MEK5, 1 µM, read-out: residual activity): 88.1%
remaining activity at 0.2 µM ([8]; 0.2 µM 2015, read-out: PYK2 residual activity): 98.8%
remaining activity at 1 µM ([8]; 1 µM 2015, read-out: PYK2 residual activity): 86.1%
remaining activity at 0.2 µM ([8]; PYK2, 0.2 µM, read-out: residual activity): 98.8%
remaining activity at 1 µM ([8]; PYK2, 1 µM, read-out: residual activity): 86.1%
remaining activity at 0.2 µM ([9]; 0.2 µM 2015, read-out: p38alpha residual activity): 5.35%
remaining activity at 1 µM ([9]; 1 µM 2015, read-out: p38alpha residual activity): 1.8%
remaining activity at 0.2 µM ([9]; p38alpha, 0.2 µM, read-out: residual activity): 5.35%
remaining activity at 1 µM ([9]; p38alpha, 1 µM, read-out: residual activity): 1.8%
remaining activity at 0.2 µM ([10]; 0.2 µM 2015, read-out: GRK7 residual activity): 123%
remaining activity at 1 µM ([10]; 1 µM 2015, read-out: GRK7 residual activity): 106%
remaining activity at 0.2 µM ([10]; GRK7, 0.2 µM, read-out: residual activity): 123%
remaining activity at 1 µM ([10]; GRK7, 1 µM, read-out: residual activity): 106%
